Measurements: paper PMC8125234, “Cardiolipin Stabilizes and Increases Catalytic Efficiency of Carnitine Palmitoyltransferase II and Its Variants S113L, P50H, and Y479F” (International Journal of Molecular Sciences, 2021)
Changes are numbered by the printed parent chain.

What was measured:
CPT II WT = target: T1, CPT II WT (Homo sapiens, UniProt P23786); experiment: Influence of CL on the enzyme activity; assay type: biochemical; settings: for Maximal Enzymatic Activity: w/o CL = 100
T1 construct: made in house; host or cells: Escherichia coli BL21Gold DE
T1 sequence (P23786 26-658): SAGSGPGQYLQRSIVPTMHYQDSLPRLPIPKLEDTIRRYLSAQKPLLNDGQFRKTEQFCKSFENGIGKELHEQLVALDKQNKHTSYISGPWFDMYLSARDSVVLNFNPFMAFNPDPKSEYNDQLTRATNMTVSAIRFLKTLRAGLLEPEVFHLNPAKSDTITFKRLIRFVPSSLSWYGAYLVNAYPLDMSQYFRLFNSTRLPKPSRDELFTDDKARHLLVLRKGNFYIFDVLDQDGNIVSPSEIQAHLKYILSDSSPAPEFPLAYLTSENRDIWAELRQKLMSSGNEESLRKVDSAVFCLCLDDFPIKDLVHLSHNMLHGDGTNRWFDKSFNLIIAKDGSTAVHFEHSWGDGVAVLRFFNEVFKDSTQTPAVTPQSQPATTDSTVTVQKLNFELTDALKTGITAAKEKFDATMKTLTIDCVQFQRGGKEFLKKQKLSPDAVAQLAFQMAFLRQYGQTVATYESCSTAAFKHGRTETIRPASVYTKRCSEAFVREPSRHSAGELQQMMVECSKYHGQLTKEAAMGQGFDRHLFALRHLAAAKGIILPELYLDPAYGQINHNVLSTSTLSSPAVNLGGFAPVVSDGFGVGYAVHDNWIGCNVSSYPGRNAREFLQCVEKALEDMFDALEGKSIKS
Protocol: (§1) Then, the effect of CL, as a potential stabilizing agent, was investigated in the activity assay. Therefore, 0.1 mg/mL recombinant enzyme was incubated with various concentrations of CL (0.125, 0.25 or 0.5 mM) or buffer at 30 and 42 °C, respectively.
(§2) Before activity measurements, the storage buffer of the enzymes was replaced with assay buffer (50 mM KH2PO4, 120 mM KCl, 1 mM EDTA-Na4) using vivaspin turbo 4 tubes (Satorius Stedim biotech GmbH, Göttingen, Germany) at 4 °C. The pH of assay buffer was adjusted with KOH to 7.4. The storage buffer was diluted at least 1:500 in assay buffer. In addition, before each experimental set up, the protein samples were centrifuged at 16,000× g for 5 min at 4 °C to remove any micro-aggregates. After that, the protein concentration was determined using bicinchoninic acid (BCA) protein assay kit (Thermo Fisher Scientific GmbH, Berlin, Germany). The enzyme activity of recombinant CPT II was performed following Rufer et al. with modifications described elsewhere. […] After pre-conditioning the mixture to 25 °C for 2 min, the reaction was started by adding 15 nM of recombinant enzyme. The reverse reaction of CPT II was detected with the enzyme activity assay. CPT II catalyzed the transfer of fatty acid residue from Pal-CoA to L-carnitine with release of CoA and Pal-carnitine. The released CoA was then detected by the reaction of the free thiol group with DTNB, forming 5-mercapto-(2-nitrobenzoic acid). This compound has a molar extinction coefficient of 13,600 M^−1 cm^−1 at a wavelength of 410 nm, and its formation was followed spectroscopically. […] The slope of the progress curve was used to determine the reaction velocity.
(§3) The purified enzymes were incubated at different temperatures (30, 37, 40 and 42 °C) using a protein concentration of 1 mg/mL during the incubation periods to investigated the half-lives of WT and variants. 0.1 mg/mL enzyme was incubated with or without CL (0.125, 0.25 and 0.5 mM) in the assay buffer. The enzyme activities were determined by adding 15 nM of pre-incubated enzyme according to Section 4.3 after various incubation times up to 60 min at an assay temperature of 25 °C. Experiments were done at least three times independently as double determination.

CPT II variant P50H = target: T2, CPT II variant P50H (Homo sapiens, UniProt P23786, P50H); experiment: Influence of CL on the enzyme activity; assay type: biochemical; settings: for Maximal Enzymatic Activity: w/o CL = 100
T2 construct: made in house; host or cells: Escherichia coli BL21Gold DE
T2 sequence (P23786 26-658 P50H): T1 sequence (P23786 26-658) with P25H
Protocol: as §1, §2, §3

Cardiolipin [CL]
Increase of the enzymatic activity by CL (CPT II WT): 1.5 fold
Maximal Enzymatic Activity (CPT II WT; 0.25 mM CL): 152.3 ± 5.5%
Maximal Enzymatic Activity (CPT II WT; 0.5 mM CL): 135.9 ± 4.7%
Enzymatic activity in the presence of CL (CPT II WT; 0.25 and 0.5 mM CL, before incubation periods): up to 150%
Increase of the enzymatic activity by CL (CPT II variant P50H): marginal effect
Maximal Enzymatic Activity (CPT II variant P50H; 0.25 mM CL): 113.0 ± 7.6%
Maximal Enzymatic Activity (CPT II variant P50H; 0.5 mM CL): 94.5 ± 6.4%
Enzymatic activity in the presence of CL (CPT II variant P50H; before incubation periods): 113%
Effect of CL on maintenance of enzyme activity (CPT II variant P50H; incubation at 42 °C): almost no effect
